The text below walks through data of ChEMBL document CHEMBL5210307, “Affinity Biochemical Literature for EUbOPEN Chemogenomics Library wave 3” (2023).

A value given as a limit tells only on which side of the number the result lay.

The target in test [1] is Epithelial discoidin domain-containing receptor 1 (Homo sapiens, UniProt Q08345). As to the kind of experiment: Affinity Biochemical interaction (Radiometric assay (10 µM ATP, Reaction Biology)) EUB0000156b DDR1. Also noted: mode of action Negative control for DDR-TRK-1 (D2202-1), recommended concentration 1 uM.
Chain of Epithelial discoidin domain-containing receptor 1 (Q08345 whole entry, the tested form may be a part): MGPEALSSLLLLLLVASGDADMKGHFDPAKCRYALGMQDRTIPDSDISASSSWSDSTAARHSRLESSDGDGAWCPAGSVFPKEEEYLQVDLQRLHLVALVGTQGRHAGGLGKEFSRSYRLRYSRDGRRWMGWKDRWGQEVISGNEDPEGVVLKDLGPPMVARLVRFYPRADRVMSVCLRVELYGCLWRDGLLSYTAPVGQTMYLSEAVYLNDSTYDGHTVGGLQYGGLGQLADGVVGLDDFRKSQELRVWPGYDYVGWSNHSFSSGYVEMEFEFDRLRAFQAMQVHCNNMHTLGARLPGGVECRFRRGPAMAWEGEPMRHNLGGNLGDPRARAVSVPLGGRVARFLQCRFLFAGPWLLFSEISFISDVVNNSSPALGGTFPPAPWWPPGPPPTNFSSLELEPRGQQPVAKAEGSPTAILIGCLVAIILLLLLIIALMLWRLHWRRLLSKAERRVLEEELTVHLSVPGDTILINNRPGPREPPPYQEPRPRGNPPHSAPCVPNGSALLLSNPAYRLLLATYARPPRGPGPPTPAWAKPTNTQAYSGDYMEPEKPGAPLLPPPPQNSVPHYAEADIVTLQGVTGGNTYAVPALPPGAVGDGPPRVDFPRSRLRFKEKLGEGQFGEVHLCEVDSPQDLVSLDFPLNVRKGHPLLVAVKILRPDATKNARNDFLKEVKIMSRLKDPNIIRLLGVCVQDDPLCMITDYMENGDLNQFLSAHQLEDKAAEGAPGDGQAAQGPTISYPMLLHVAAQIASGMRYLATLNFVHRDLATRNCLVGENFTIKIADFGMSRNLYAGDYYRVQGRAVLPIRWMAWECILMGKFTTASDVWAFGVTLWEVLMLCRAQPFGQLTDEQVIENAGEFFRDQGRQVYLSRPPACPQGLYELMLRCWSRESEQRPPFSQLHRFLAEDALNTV
In test [2] the target is Discoidin domain-containing receptor 2 (Homo sapiens, UniProt Q16832). Kind of test: Affinity Biochemical interaction (Radiometric assay (10 µM ATP, Reaction Biology)) EUB0000156b DDR2. The arrangement: mode of action Negative control for DDR-TRK-1 (D2202-1), recommended concentration 1 uM.
In test [3] the target is High affinity nerve growth factor receptor (Homo sapiens, UniProt P04629). Kind of test: Affinity Biochemical interaction (Radiometric assay (10 µM ATP, Reaction Biology)) EUB0000156b NTRK1. The arrangement: mode of action Negative control for DDR-TRK-1 (D2202-1), recommended concentration 1 uM.
The target of test [4] is NT-3 growth factor receptor (Homo sapiens, UniProt Q16288). Kind of test: Affinity Biochemical interaction (Radiometric assay (10 µM ATP, Reaction Biology)) EUB0000156b NTRK3. Also noted: mode of action Negative control for DDR-TRK-1 (D2202-1), recommended concentration 1 uM.
For test [5], the target named is Ephrin type-B receptor 4 (Homo sapiens, UniProt P54760). As to the kind of experiment: Affinity Biochemical interaction (Microscale thermophoresis (MST) assay) EUB0000143b EPHB4. Also noted: mode of action Inhibitor, recommended concentration 100 nM. In general terms: MST reads how a fluorescent partner responds to local heating, with and without ligand.
Test [6] concerns the target Peripheral plasma membrane protein CASK (Homo sapiens, UniProt O14936). As to the kind of experiment: Affinity Biochemical interaction (Isothermal titration calorimetry (ITC)) EUB0000723a CASK. Also noted: mode of action Inhibitor, recommended concentration 1 uM. (In general: Isothermal titration calorimetry measures the heat released or taken up as one component is titrated into another.)

Test [7] concerns the target T1, Histone acetyltransferase p300 (Homo sapiens, UniProt Q09472).
Test [8] concerns the target Dual specificity protein kinase CLK1 (Homo sapiens, UniProt P49759). As to the kind of experiment: Affinity Biochemical interaction (NanoBRET assay (in HEK293T cells)) EUB0000009b CLK1. The class given is cell-based. The arrangement: mode of action Negative control for MU1210, recommended concentration 1 uM. Background: In BRET a luciferase serves as donor, and the signal depends on an acceptor being close.

In test [9] the target is Dual specificity protein kinase CLK2 (Homo sapiens, UniProt P49760). As to the kind of experiment: Affinity Biochemical interaction (NanoBRET assay (in HEK293T cells)) EUB0000009b CLK2. The class given is cell-based. The arrangement: mode of action Negative control for MU1210, recommended concentration 1 uM.
Test [10] concerns the target Dual specificity protein kinase CLK4 (Homo sapiens, UniProt Q9HAZ1). As to the kind of experiment: Affinity Biochemical interaction (NanoBRET assay (in HEK293T cells)) EUB0000009b CLK4. The class given is cell-based. The arrangement: mode of action Negative control for MU1210, recommended concentration 1 uM.
The target in test [11] is T2, Protein AF-9 (Homo sapiens, UniProt P42568).
T2 sequence (P42568 whole entry): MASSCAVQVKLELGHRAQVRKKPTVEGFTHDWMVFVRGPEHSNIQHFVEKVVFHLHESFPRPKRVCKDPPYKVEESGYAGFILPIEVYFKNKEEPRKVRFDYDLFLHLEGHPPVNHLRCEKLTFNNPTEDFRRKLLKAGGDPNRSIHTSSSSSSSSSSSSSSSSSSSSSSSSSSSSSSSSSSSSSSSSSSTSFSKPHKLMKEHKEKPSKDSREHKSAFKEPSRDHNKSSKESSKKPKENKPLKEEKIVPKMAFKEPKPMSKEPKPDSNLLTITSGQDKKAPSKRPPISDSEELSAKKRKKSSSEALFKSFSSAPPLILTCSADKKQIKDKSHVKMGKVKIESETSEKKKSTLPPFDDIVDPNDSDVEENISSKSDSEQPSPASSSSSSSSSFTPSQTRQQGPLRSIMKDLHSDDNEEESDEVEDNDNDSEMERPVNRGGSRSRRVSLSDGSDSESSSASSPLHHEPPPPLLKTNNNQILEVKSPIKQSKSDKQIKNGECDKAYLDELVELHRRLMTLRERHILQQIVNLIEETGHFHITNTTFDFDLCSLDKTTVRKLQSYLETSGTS
As to the kind of experiment: Affinity Biochemical interaction (AlphaScreen assay) EUB0000283b MLLT3. Also noted: mode of action Inhibitor, recommended concentration 1 uM.

Test [12] addresses Protein ENL (Homo sapiens, UniProt Q03111). As to the kind of experiment: Affinity Biochemical interaction (AlphaScreen assay) EUB0000283b MLLT1. Also noted: mode of action Inhibitor, recommended concentration 1 uM.
The target of test [13] is T3, Protein farnesyltransferase subunit beta (Homo sapiens, UniProt P49356). As to the kind of experiment: Affinity Biochemical interaction (Scintillation proximity assay (SPA)) EUB0000736a FNTB. Also noted: mode of action Negative control for ABT-100, recommended concentration 1 uM.
T3 sequence (P49356 whole entry): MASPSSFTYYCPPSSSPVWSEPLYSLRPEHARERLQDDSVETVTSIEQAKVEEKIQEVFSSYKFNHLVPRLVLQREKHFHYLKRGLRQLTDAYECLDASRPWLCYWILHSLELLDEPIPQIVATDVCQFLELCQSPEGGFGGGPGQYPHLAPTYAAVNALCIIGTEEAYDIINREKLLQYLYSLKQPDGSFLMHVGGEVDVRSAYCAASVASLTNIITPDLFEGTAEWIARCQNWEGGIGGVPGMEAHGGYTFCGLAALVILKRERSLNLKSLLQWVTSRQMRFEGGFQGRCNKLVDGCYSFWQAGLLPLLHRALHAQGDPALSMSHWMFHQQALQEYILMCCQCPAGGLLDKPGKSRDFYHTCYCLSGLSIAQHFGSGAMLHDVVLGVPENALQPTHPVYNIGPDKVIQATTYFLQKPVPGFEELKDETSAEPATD
Test [14] deals with Hepatocyte growth factor receptor (Homo sapiens, UniProt P08581). Kind of test: Affinity Biochemical interaction (Homogeneous Time Resolved Fluorescence Assay) EUB0000293b MET. The arrangement: mode of action Inhibitor, recommended concentration 1 uM.
Test [15] concerns the target T1, Histone acetyltransferase p300. As to the kind of experiment: Affinity Biochemical interaction (TR-FRET assay (BHC domains)) EUB0000326a EP300.
Test [16] deals with T3, Protein farnesyltransferase subunit beta. Kind of test: Affinity Biochemical interaction (Scintillation proximity assay (SPA)) EUB0000289c FNTB. Also noted: mode of action Inhibitor, recommended concentration 1 uM.
Test [17] addresses Tyrosine-protein kinase Mer (Homo sapiens, UniProt Q12866).
The target in test [18] is Histone acetyltransferase KAT2B (Homo sapiens, UniProt Q92831). As to the kind of experiment: Affinity Biochemical interaction (BROMOscan assay (DiscoverX)) EUB0000218c KAT2B. Also noted: mode of action Inhibitor, recommended concentration 1 uM.
For test [19], the target named is Cannabinoid receptor 1 (Homo sapiens, UniProt P21554). As to the kind of experiment: Affinity Biochemical interaction (Radioligand binding assay (CNR1, inverse agonism)) EUB0000316b CNR1. The arrangement: mode of action Negative control for MRL-650, recommended concentration 1 uM.
Chain of Cannabinoid receptor 1 (P21554 whole entry): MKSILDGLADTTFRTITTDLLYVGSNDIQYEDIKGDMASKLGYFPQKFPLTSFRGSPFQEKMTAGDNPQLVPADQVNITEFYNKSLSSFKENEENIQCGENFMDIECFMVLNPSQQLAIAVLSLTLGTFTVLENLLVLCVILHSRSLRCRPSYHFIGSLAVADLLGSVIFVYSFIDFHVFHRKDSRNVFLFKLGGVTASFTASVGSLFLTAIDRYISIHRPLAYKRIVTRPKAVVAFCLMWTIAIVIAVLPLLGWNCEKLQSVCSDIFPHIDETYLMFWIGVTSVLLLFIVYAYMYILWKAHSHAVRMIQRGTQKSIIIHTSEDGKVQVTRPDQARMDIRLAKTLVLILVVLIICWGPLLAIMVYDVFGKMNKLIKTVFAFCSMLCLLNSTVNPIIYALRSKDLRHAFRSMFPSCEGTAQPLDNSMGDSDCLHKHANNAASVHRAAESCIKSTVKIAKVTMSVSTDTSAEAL
Test [20] deals with Fatty-acid amide hydrolase 1 (Homo sapiens, UniProt O00519). As to the kind of experiment: Affinity Biochemical interaction (Binding assay) EUB0000540a FAAH. Also noted: mode of action Negative control for PF-04457845, recommended concentration 1 uM.
Chain of Fatty-acid amide hydrolase 1 (O00519 whole entry): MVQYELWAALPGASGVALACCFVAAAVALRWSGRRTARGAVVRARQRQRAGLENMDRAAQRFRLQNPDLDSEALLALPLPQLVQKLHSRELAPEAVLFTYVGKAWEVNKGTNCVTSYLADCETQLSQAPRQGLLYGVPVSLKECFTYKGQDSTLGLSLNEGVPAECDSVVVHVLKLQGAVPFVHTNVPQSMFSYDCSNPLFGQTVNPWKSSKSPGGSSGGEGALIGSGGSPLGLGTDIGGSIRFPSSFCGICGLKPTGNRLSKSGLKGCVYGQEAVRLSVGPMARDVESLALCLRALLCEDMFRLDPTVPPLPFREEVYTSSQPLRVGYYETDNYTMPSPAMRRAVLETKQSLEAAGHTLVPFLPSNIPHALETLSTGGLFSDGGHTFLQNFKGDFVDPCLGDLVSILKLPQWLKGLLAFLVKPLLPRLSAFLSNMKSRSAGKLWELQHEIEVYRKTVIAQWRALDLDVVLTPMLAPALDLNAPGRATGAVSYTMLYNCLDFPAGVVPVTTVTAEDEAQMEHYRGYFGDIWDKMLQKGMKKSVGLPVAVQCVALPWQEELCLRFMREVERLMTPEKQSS
Test [21] concerns the target 5'-AMP-activated protein kinase catalytic subunit alpha-1 (Homo sapiens, UniProt Q13131). Kind of test: Affinity Biochemical interaction (Biochemical PRKAA1 assay (10 µM ATP)) EUB0000707a PRKAA1. The arrangement: mode of action Negative control for BAY-3827, recommended concentration 100 nM.
In test [22] the target is Transient receptor potential cation channel subfamily A member 1 (Homo sapiens, UniProt O75762). As to the kind of experiment: Affinity Biochemical interaction (FLIPR-based Ca2+ assay (activated by 30 µM AITC)) EUB0000308b TRPA1. The arrangement: mode of action Antagonist, recommended concentration 1 uM.
For test [23], the target named is T2, Protein AF-9.

T1 sequence (Q09472 whole entry): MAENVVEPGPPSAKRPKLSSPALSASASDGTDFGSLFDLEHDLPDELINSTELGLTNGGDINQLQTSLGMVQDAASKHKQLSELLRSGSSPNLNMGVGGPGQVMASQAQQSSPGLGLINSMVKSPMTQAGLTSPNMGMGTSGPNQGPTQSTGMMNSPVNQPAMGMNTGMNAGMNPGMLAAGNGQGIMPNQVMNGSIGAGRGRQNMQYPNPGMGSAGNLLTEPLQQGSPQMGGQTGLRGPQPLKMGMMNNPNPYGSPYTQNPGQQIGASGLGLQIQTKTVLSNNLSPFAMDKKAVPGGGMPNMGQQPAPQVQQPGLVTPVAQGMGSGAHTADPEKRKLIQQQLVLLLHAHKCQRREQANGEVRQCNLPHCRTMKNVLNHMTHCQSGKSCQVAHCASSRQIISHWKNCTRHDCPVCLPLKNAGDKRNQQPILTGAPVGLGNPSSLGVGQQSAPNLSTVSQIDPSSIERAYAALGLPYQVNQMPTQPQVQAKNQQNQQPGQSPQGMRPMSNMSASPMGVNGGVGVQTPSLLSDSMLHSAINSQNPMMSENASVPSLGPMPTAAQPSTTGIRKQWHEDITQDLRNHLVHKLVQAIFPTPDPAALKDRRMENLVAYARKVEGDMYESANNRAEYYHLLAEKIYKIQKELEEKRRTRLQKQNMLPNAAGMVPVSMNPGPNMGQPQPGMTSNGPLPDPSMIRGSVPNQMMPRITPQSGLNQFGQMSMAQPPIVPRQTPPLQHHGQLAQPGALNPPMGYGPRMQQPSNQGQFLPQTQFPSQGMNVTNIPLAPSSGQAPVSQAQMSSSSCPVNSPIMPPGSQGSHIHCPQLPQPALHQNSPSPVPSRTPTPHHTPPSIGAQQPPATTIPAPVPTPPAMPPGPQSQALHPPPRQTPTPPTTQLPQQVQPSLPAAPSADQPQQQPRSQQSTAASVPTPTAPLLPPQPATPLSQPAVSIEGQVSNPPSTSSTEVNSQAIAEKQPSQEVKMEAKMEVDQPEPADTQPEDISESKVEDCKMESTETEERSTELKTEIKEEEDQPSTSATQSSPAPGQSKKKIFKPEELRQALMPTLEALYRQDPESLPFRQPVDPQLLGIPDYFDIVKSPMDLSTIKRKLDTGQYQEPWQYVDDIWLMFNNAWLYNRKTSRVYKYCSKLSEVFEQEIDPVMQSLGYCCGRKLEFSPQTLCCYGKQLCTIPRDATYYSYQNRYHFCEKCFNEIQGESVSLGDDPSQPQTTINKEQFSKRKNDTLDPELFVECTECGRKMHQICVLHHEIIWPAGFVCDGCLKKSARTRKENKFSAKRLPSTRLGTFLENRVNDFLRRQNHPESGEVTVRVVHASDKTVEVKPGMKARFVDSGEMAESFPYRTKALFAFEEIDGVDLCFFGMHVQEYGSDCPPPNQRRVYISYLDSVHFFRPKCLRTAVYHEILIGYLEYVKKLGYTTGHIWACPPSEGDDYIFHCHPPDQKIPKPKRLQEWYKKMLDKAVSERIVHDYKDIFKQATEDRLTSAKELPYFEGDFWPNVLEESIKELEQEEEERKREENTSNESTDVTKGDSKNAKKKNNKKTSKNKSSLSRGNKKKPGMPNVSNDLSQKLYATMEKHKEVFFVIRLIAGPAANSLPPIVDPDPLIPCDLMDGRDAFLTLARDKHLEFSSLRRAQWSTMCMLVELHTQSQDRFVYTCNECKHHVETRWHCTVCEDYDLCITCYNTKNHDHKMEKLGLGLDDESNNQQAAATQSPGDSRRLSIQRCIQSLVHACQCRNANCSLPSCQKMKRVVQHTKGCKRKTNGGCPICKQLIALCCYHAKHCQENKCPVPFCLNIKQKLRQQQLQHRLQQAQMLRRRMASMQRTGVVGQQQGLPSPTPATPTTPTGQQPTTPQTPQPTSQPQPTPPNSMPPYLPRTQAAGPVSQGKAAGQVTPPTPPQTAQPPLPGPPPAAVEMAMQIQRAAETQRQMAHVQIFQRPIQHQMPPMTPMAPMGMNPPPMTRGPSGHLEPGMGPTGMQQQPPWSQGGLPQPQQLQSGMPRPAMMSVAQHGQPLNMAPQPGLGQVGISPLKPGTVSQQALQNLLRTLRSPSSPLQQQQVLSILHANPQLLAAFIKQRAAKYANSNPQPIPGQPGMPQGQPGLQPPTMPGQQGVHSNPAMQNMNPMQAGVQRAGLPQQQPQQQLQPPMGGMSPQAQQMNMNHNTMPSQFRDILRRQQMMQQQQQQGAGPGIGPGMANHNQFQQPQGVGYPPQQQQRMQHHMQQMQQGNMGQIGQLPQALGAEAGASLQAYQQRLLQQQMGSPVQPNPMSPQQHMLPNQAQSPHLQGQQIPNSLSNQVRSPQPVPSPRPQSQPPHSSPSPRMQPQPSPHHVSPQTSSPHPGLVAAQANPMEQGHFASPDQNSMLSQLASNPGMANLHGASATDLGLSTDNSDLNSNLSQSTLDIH

Regarding `CN1CCN(Cc2cc(NC(=O)c3ccc4c(c3)CN(c3ccccc3)CC4)cc(C(F)(F)F)c2)CC1`, the IC50 (commonly the concentration that inhibits the measured activity by half) in test [1] is 1730 nM; in [2], greater than 10000 nM; in test [3], 6250 nM; in test [4], 8100 nM.
As for `Cc1ccc(C(=O)Nc2cccc(C(F)(F)F)c2)cc1Nc1nc(-c2cccnc2)nc2c1cnn2C`, in [5], the IC50 stood at 6 nM.
On to `O=C(NCCCN1CCOC1=O)c1cnc(NCc2cc(Br)ccc2Br)nc1NC1CCCC1`, for which the dissociation constant Kd – broadly, the free concentration of one partner at which half of the binding sites on the other are occupied at equilibrium, for simple one-to-one binding – in [6] is 22 nM.
With `CCC(=O)N1CCOc2c(cc(-c3ccc(OC)c(OC)c3)cc2OC[C@H]2CCCN(C)C2)C1`, in test [7], binding was characterised by a dissociation constant (Kd) of 625 nM.
Regarding `Cn1cc(-c2ccc3occ(-c4ccccc4-c4ccccc4)c3n2)cn1`, the inhibitory constant (Ki) in [8], in test [9] and in [10] was greater than 10000 nM in each case.
In the case of `C[C@H]1CCCN1Cc1nc2cc(NC(=O)c3ccc4cnccc4c3)ccc2[nH]1`, the concentration for half-maximal inhibition (IC50) in test [11] turned out to be 254 nM; in [12] it was 150 nM.
`Cn1cncc1[C@@](O)(COc1ccc(C#N)cc1-c1ccc(OC(F)(F)F)cc1)c1ccc(C#N)cc1` [A-108] yielded an IC50 in [13] greater than 100000 nM.
`CC1=C(C#N)C(c2ccc3[nH]nc(C)c3c2)C(C#N)=C(C)N1` [BAY-474]: the IC50 in test [14] is less than 1 nM.
In the case of `CNC(=O)Nc1ccc2c(c1)[C@@]1(CC2)OC(=O)N(CC(=O)N(Cc2ccc(F)cc2)[C@@H](C)C(F)(F)F)C1=O` [A-486], the IC50 in test [15] is greater than 10000 nM.
With `Cn1cncc1[C@](O)(COc1ccc(C#N)cc1-c1ccc(OC(F)(F)F)cc1)c1ccc(C#N)cc1` [ABT-100], the midpoint of inhibition in [16], the IC50, lay at 0.05 nM.
The molecule `CCOc1cn(-c2ccc(F)cc2C)nc1C(=O)Nc1ccc(Oc2ccnc3cc(OC)c(OC)cc23)c(F)c1` yielded a half-maximal inhibitory concentration (IC50) in [17] of 5 nM.
Take `Cc1nnc2c3ccccc3c(N[C@@H](C)[C@H](c3ccccc3)N(C)C)nn12`: the concentration for half-maximal inhibition (IC50) in test [18] is 48 nM.
In turn, `CC(=O)c1c(NS(C)(=O)=O)c2cc(-c3ccc(Cl)cc3)c(-c3ccc(Cl)cc3Cl)nc2n(C)c1=O` [MRL-CB1-NC] registered a half-maximal inhibitory concentration (IC50) in test [19] of 32.5 nM.
Turning to `O=C(Nc1cccnn1)N1CC(C/C=C/c2cncc(Oc3ccc(C(F)(F)F)cn3)n2)C1`, in test [20], the IC50 is greater than 100000 nM.
The molecule `CC1=C(C#N)C(c2ccc3c(c2)c(NC(=O)c2ccccc2C)nn3C)C(C#N)=C(C)N1` [BAY-974] displayed a 50% inhibitory concentration (IC50) in test [21] greater than 20000 nM.
`Clc1cccc(-c2nnnn2Cc2cccnc2)c1Cl` yielded a half-inhibitory concentration (IC50) in test [22] of 67 nM.
`CN(C)C(=O)c1ccc(-c2cc(C(=O)N[C@@H]3CCc4ccccc43)no2)cc1O` gave an IC50 in [23] of 160 nM.
